Measurements reported in EP4682145A1, “BENZOHETEROCYCLIC COMPOUND, AND PREPARATION METHOD THEREFOR AND USE THEREOF” (Cascade Pharmaceuticals, Inc., priority 2023, dated 2024).

Molecular target: T1, human FFAR1 (GPR40) (Homo sapiens, UniProt O14842)
T1 construct: Flag; expressed in transfected cells; host or cells: HEK293T
Test: NFAT-RE-based reporter gene activity assay (Dual-Glo luciferase) for GPR40 agonistic activity in co-transfected HEK293T cells
Assay type: cell-based
Settings: 4-hour treatment; for Efficacy (%): class symbols
From the text: The pcDNA3.0-flag-FFAR1 (GPR40) plasmid was constructed using conventional molecular cloning methods. The main steps were as follows: The full-length cDNA sequence of human FFAR1 (GPR40) (NM_005303.3) was inserted into the HindIII and XbaI restriction sites of the pcDNA3.0 vector via PCR technology, resulting in the pcDNA3.0-flag-FFAR1 (GPR40) plasmid; pGL4.30 [luc2P NFAT-RE] (# E8481) and pRL-TK (#E2241) plasmids were both purchased from Promega; the plasmids were transformed into DH5α E. coli using the CaCl2 method, further cultured and amplified, and then purified using a plasmid extraction kit (TIANGEN, # DP117) to obtain the corresponding plasmid DNA.
HEK293T cells were seeded in a 96-well plate at a density of 1 × 10^4/well one day prior to plasmid transfection. Cell transfection was performed according to the instructions of the transfection reagent FuGENE® HD (Promega, # E2311). The main steps were as follows: Taking one well as an example, plasmids pcDNA3.0-flag-FFAR1 (GPR40), pGL4.30 [luc2P NFAT-RE], and pRL-TK were added at ratios of 50 ng, 50 ng, and 5 ng, respectively, into 10 µL of Opti-MEM™ I medium (Gibco, #11058021) and mixed thoroughly; then, 0.2 µL of FuGENE® HD was added, mixed thoroughly, and allowed to stand at room temperature for 5 minutes; finally, this 10 µL mixture was added to the cell well containing 100 µL of culture medium. 24 hours after co-transfection, the compounds were serially diluted at half-logarithmic intervals with 1 µM as the highest concentration, resulting in 10 concentration gradients, which were added to the cell culture medium for a 4-hour treatment.
After 4 hours of compound treatment, the cells were assayed according to the instructions of the Dual-Glo® Luciferase Assay System (Promega, # E2940). The main steps were as follows: 50 µL of culture medium was aspirated from each well and discarded, followed by the addition of 50 µL of Dual-Glo® Luciferase Reagent, and the mixture was shaken at room temperature for 10 minutes. Then, 80 µL of the lysate reaction solution was transferred to a white opaque optiPlate-96 well plate, and the luminescence signal of Firefly luciferase (Firefly-Luc) was measured using an MD i3x multifunctional microplate reader. Subsequently, 40 µL of Dual-Glo® Stop & Glo® Reagent was added, and the mixture was shaken at room temperature for 10 minutes. Finally, the luminescence signal of Renilla luciferase (Renilla-Luc) was measured using the MD i3x multifunctional microplate reader. The ratio of Firefly-Luc/Renilla-Luc was used as the compound's agonistic activity toward GPR40, and normalization was performed using the ratio of the solvent DMSO group. A dose-response curve was fitted using a four-parameter model with GraphPad Prism 8.0 software to calculate the EC50 value.

T1 sequence (O14842 whole entry): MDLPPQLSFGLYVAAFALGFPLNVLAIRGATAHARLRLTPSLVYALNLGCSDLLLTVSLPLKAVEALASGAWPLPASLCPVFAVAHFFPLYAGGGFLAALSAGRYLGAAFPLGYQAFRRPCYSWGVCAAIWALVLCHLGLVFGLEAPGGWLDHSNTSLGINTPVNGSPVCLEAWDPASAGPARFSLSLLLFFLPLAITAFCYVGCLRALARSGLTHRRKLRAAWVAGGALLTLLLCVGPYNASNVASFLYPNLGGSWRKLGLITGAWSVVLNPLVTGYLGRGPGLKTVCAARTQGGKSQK

Row | Compound | EC50 [nM] | Efficacy (%)
1 | COc1cccc(N2CCC(c3oc4cc([C@@H](CC(=O)O)C5CC5)ccc4c3C(=O)Nc3cc(OC)ccc3Cl)CC2)c1 [Compound 268] | ≤ 10 | †† (150 ≥ Efficacy (%) > 100)
2 | COc1ccc(F)c(N2CCC(c3oc4cc([C@H](C5CC5)C(C)C(=O)O)ccc4c3-c3cccc(C(C)(C)C)c3)CC2)c1 (some centres unmarked) [Compound 217] | 10 to 100 | †† (150 ≥ Efficacy (%) > 100)
3 | CCc1ccc(Cl)c(NC(=O)c2c(C3CCN(c4ccc5c(c4)OCO5)CC3)oc3cc([C@@H](CC(=O)O)C4CC4)ccc23)c1 [Compound 337] | ≤ 10 | †† (150 ≥ Efficacy (%) > 100)
4 | COc1ccc(F)c(N2CCC(c3oc4cc([C@@H](CC(=O)O)C5CC5)ccc4c3-c3ccc(C(C)OC)cc3)CC2)c1 (some centres unmarked) [Compound 176] | 100 to 500 | †† (150 ≥ Efficacy (%) > 100)
5 | COc1cccc(N2CCC(c3oc4cc(C(CP(=O)(O)OC)C5CC5)ccc4c3-c3cnn(C(C)(C)C)c3)CC2)c1 (centres unmarked) [Compound 70] | > 500 | †† (150 ≥ Efficacy (%) > 100)
6 | CCC(Cc1ccc2c(-c3cnn(C(C)(C)C)c3)c(C3CCN(c4cccc(OC)c4)CC3)oc2c1)C(=O)O (centres unmarked) [Compound 61] | 100 to 500 | †† (150 ≥ Efficacy (%) > 100)
7 | CCn1cc(-c2c(C3CCN(c4cccc(OC)c4)CC3)oc3cc(C(CC(=O)O)C4CC4)ccc23)cn1 (centres unmarked) [Compound 37] | 100 to 500 | †† (150 ≥ Efficacy (%) > 100)
8 | COc1cccc(N2CCC(c3oc4cc([C@@H](CC(=O)O)C5CC5)ccc4c3C(C)OCC3CCCC3)CC2)c1 (some centres unmarked) [Compound 419] | 10 to 100 | ††††
9 | COc1ccc(F)c(N2CCC(c3oc4cc([C@@H](CC(=O)O)C5CC5)ccc4c3/C=C/C(C)(C)C)CC2)c1 [Compound 367] | ≤ 10 | †† (150 ≥ Efficacy (%) > 100)
10 | COc1ccc(F)c(N2CCC(c3oc4cc(C(CC(=O)O)C5CC5)ccc4c3-c3ccc(N(C)C(C)C)cc3)CC2)c1 (centres unmarked) [Compound 185] | 100 to 500 | †† (150 ≥ Efficacy (%) > 100)
11 | CC(C)(C)n1cc(-c2c(C3CCN(c4ccccc4)CC3)oc3cc(C(CC(=O)O)C4CC4)ccc23)cn1 (centres unmarked) [Compound 39] | 100 to 500 | ††† (Efficacy (%) > 150)
12 | COCC(C)(C)n1cc(-c2c(C3CCN(c4cccc(OC)c4)CC3)oc3cc(C(CC(=O)O)C4CC4)ccc23)cn1 (centres unmarked) [Compound 48] | 100 to 500 | †† (150 ≥ Efficacy (%) > 100)
13 | COc1ccc(F)c(N2CCC(c3oc4cc([C@H](CC(=O)O)C5CC5)ccc4c3-c3ccc(C(C)(C)C)cc3)CC2)c1 [Compound 170] | 100 to 500 | †† (150 ≥ Efficacy (%) > 100)
14 | CN1CCC(c2oc3cc(C(CC(=O)O)C4CC4)ccc3c2-c2cccc(C(C)(C)C)c2)CC1 (centres unmarked) [Compound 1] | > 1000 | † (100 ≥ Efficacy (%) > 50)
15 | COc1cccc(N2CCC(c3oc4cc([C@@H](CC(=O)O)C5CC5)ccc4c3-c3cccc(C)c3)CC2)c1 [Compound 28] | 100 to 500 | ††† (Efficacy (%) > 150)
16 | COc1ccc(F)c(N2CCC(c3oc4cc([C@H](CC(=O)O)C5CC5)ccc4c3-c3cccc(C(C)(C)C)c3)CC2)c1 [Compound 167] | 100 to 500 | †† (150 ≥ Efficacy (%) > 100)
17 | COc1ccc(F)c(N2CCC(c3oc4cc(CCC(=O)O)ccc4c3-c3cccc(C(C)(C)C)c3)CC2)c1 [Compound 231] | 100 to 500 | † (100 ≥ Efficacy (%) > 50)
18 | COc1cccc(N2CCC(c3oc4cc(C(CC(=O)O)C5CC5)ccc4c3C(=O)Nc3cccc(OC)c3F)CC2)c1 (centres unmarked) [Compound 258] | 100 to 500 | ††† (Efficacy (%) > 150)
19 | CC(C)(C)n1cc(-c2c(C3CCN(c4cccc(F)c4)CC3)oc3cc(C(CC(=O)O)C4CC4)ccc23)cn1 (centres unmarked) [Compound 41] | 100 to 500 | †† (150 ≥ Efficacy (%) > 100)
20 | COc1cccc(N2CCC(c3oc4cc(C(CC(=O)O)C5CC5)ccc4c3-c3cccc(NC(=O)CC(C)(C)C)n3)CC2)c1 (centres unmarked) [Compound 149] | 100 to 500 | †† (150 ≥ Efficacy (%) > 100)

Row | Compound | EC50 [nM] | Efficacy (%)
21 | COc1cccc(N2CCC(c3oc4cc([C@@H](CC(=O)O)C5CC5)ccc4c3C(=O)Nc3cc(Cl)ccc3Cl)CC2)c1 [Compound 267] | ≤ 10 | ††† (Efficacy (%) > 150)
22 | COc1cccc(N2CCC(c3oc4cc(C(CC(=O)O)C5CC5)ccc4c3C(=O)Nc3cc(C(C)(C)C)no3)CC2)c1 (centres unmarked) [Compound 301] | 100 to 500 | †† (150 ≥ Efficacy (%) > 100)
23 | COc1cccc(N2CCC(c3oc4cc([C@@H](CC(=O)O)C5CC5)ccc4c3-c3csc(OC)n3)CC2)c1 [Compound 105] | 10 to 100 | †† (150 ≥ Efficacy (%) > 100)
24 | COc1cccc(N2CCC(c3oc4cc([C@@H](CC(=O)O)C5CC5)ccc4c3C(C)OCC3CC3)CC2)c1 (some centres unmarked) [Compound 417] | 100 to 500 | ††† (Efficacy (%) > 150)
25 | COc1cccc(N2CCC(c3oc4cc(C(CC(=O)O)C5CC5)ccc4c3Cc3nnc(C(C)(C)C)o3)CC2)c1 (centres unmarked) [Compound 450] | 100 to 500 | † (100 ≥ Efficacy (%) > 50)
26 | COc1cccc(N2CCC(c3oc4cc([C@@H](CC(=O)O)C5CC5)ccc4c3C(=O)Nc3cc(Cl)ccc3F)CC2)c1 [Compound 270] | 10 to 100 | ††††
27 | COc1cccc(-c2c(C3CCN(c4ccc5c(c4)OCO5)CC3)oc3cc(C(CC(=O)O)C4CC4)ccc23)c1 (centres unmarked) [Compound 211] | 100 to 500 | ††† (Efficacy (%) > 150)
28 | COc1ccc(F)c(N2CCC(c3oc4cc(C(CC(=O)O)C5CC5)ccc4c3CC(C)OC)CC2)c1 (centres unmarked) [Compound 394] | > 500 | †† (150 ≥ Efficacy (%) > 100)
29 | COc1cccc(N2CCC(c3oc4cc(C(CC(=O)O)C5CC5)ccc4c3C(=O)Nc3cccc(Br)c3)CC2)c1 (centres unmarked) [Compound 247] | 100 to 500 | ††† (Efficacy (%) > 150)
30 | COc1cccc(N2CCC(c3oc4cc([C@@H](CC(=O)O)C5CC5)ccc4c3C(=O)Nc3cccc(C)c3)CC2)c1F [Compound 325] | 100 to 500 | †† (150 ≥ Efficacy (%) > 100)
31 | COc1cccc(N2CCC(c3oc4cc([C@@H](CC(=O)O)C5CC5)ccc4c3-c3cnc(C(C)(C)C)s3)CC2)c1 [Compound 103] | 10 to 100 | †† (150 ≥ Efficacy (%) > 100)
32 | COc1ccc(F)c(N2CCC(c3oc4cc(C(CC(=O)O)C5CC5)ccc4c3-c3ccc(C)cc3)CC2)c1 (centres unmarked) [Compound 160] | 100 to 500 | †† (150 ≥ Efficacy (%) > 100)
33 | CCOc1cccc(N2CCC(c3oc4cc(C(CC(=O)O)C5CC5)ccc4c3-c3ccc(C(C)(C)C)cc3)CC2)c1 (centres unmarked) [Compound 15] | 100 to 500 | ††† (Efficacy (%) > 150)
34 | COc1ccc(F)c(N2CCC(c3oc4cc(C(C5CC5)C(C)(C)C(=O)O)ccc4c3-c3ccc(C(C)(C)C)cc3)CC2)c1 (centres unmarked) [Compound 222] | 100 to 500 | ††† (Efficacy (%) > 150)
35 | COc1ccc(F)c(N2CCC(c3oc4cc(C(CC(=O)O)C5CC5)ccc4c3CCC(C)(C)C)CC2)c1 (centres unmarked) [Compound 388] | 100 to 500 | †† (150 ≥ Efficacy (%) > 100)
36 | COc1cccc(N2CCC(c3oc4cc([C@@H](CC(=O)O)C5CC5)ccc4c3-c3nc(C(C)(C)C)cs3)CC2)c1 [Compound 110] | 10 to 100 | †† (150 ≥ Efficacy (%) > 100)
37 | COc1ccc(F)c(N2CCC(c3oc4cc(C(CC(=O)O)C5CC5)ccc4c3-c3cnn(-c4ccccc4)c3)CC2)c1 (centres unmarked) [Compound 99] | 100 to 500 | †† (150 ≥ Efficacy (%) > 100)
38 | COc1cccc(N2CCC(c3oc4cc([C@@H](CC(=O)O)C5CC5)ccc4c3C(=O)Nc3cc(N4CCOCC4)ccc3Cl)CC2)c1 [Compound 285] | ≤ 10 | †† (150 ≥ Efficacy (%) > 100)
39 | COc1ccc(F)c(N2CCC(c3oc4cc(C(CC(=O)O)C5CC5)ccc4c3C(=O)NCC(C)(C)C)CC2)c1 (centres unmarked) [Compound 306] | 100 to 500 | †† (150 ≥ Efficacy (%) > 100)
40 | COc1cccc(N2CCC(c3oc4cc(C(CC(=O)O)C5CC5)ccc4c3-c3nnc(C(C)(C)C)o3)CC2)c1 (centres unmarked) [Compound 124] | 10 to 100 | †† (150 ≥ Efficacy (%) > 100)
